Experimental findings from patent publication US20200347043A1, “MODULATORS OF THE INTEGRATED STRESS PATHWAY” (Calico Life Sciences LLC, priority 2019, published 2020) are described below.

This assay relates to HEK293T cells carrying the ATF4 luciferase reporter. The experiment in a line: ATF4-Luc assay (in vitro model of VWMD). Conditions: Homo sapiens, HEK-293T, 1 μg/mL tunicamycin, 7 hours, One Glo luminescence. In kind it is cell-based, human. Summed up:
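Tunicamycin (1 μg/mL) stress with co-added compound for 7 hours in HEK293T cells stably carrying an ATF4 5′-UTR–luciferase reporter. EC50 values come from the luminescent signal (One Glo).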

Where only a bound is given, the exact number is not on record here.

For the compound `O=C(NC12CC(c3cc(-c4ccc(Cl)cc4)no3)(C1)C2)[C@H]1C[C@@H](O)c2cc(Cl)ccc2O1` [Compound 246, (2R,4R)-6-chloro-N-{3-[3-(4-chlorophenyl)-1,2-oxazol-5-yl]bicyclo[11.11]pentan-1-yl}-4-hydroxy-3,4-dihydro-2H-1-benzopyran-2-carboxamide], the EC50 is 10 to 50 nM.

As for `O=C(NC12CC(c3ncc(-c4ccc(Cl)c(F)c4)o3)(C1)C2)[C@@H]1C[C@@H](O)c2cc(Cl)ccc2O1` [Compound 271, (2S,4R)-6-chloro-N-{3-[5-(4-chloro-3-fluorophenyl)-1,3-oxazol-2-yl]bicyclo[1.1.1]pentan-1-yl}-4-hydroxy-3,4-dihydro-2H-1-benzopyran-2-carboxamide], the EC50 is 10 to 50 nM.

As for `O=C(CO[C@H]1C[C@@H](OC(F)(F)F)C1)NC12CCC(NC(=O)[C@H]3C[C@@H](O)c4cc(Cl)ccc4O3)(C1)C2` [Compound 196, (2R,4R)-6-chloro-4-hydroxy-N-[4-(2-{[cis-3-(trifluoromethoxy)cyclobutyl]oxy}acetamido)bicyclo[2.1.1]hexan-1-yl]-3,4-dihydro-2H-1-benzopyran-2-carboxamide], the EC50 lay within 10 to 50 nM.

As to `Cc1cc(C)cc(OCC2CN(C34CC(NC(=O)[C@H]5C[C@@H](O)c6cc(Cl)ccc6O5)(C3)C4)C(=O)O2)c1` (stereo partly drawn) [Compound 142, (2R,4R)-6-chloro-N-(3-{5-[(3,5-dimethylphenoxy)methyl]-2-oxo-1,3-oxazolidin-3-yl}bicyclo[1.1.1]pentan-1-yl)-4-hydroxy-3,4-dihydro-2H-1-benzopyran-2-carboxamide], the EC50 is > 2000 nM.

Regarding `O=C(NC12CC(c3csc([C@H]4C[C@@H](OC(F)(F)F)C4)n3)(C1)C2)[C@H]1C[C@@H](O)c2cc(Cl)ccc2O1` [Compound 280, (2R,4R)-6-chloro-4-hydroxy-N-(3-{2-[cis-3-(trifluoromethoxy)cyclobutyl]-1,3-thiazol-4-yl}bicyclo[1.1.1]pentan-1-yl)-3,4-dihydro-2H-1-benzopyran-2-carboxamide], the EC50 is 50 to 250 nM.

With `O=C(NC12CCC(c3ncc([C@H]4C[C@@H](OC(F)(F)F)C4)o3)(CC1)CC2)[C@H]1C[C@@H](O)c2cc(Cl)ccc2O1` [Compound 297, (2R,4R)-6-chloro-4-hydroxy-N-(4-{5-[cis-3-(trifluoromethoxy)cyclobutyl]-1,3-oxazol-2-yl}bicyclo[2.2.2]octan-1-yl)-3,4-dihydro-2H-1-benzopyran-2-carboxamide], the concentration for a half-maximal effect (EC50) lay within 10 to 50 nM.

For the compound `O=C(N[C@H]1CC[C@H](C(=O)N[C@H]2C[C@@H](OC(F)(F)F)C2)CC1)[C@H]1C[C@@H](O)c2cc(Cl)ccc2O1` [Compound 215, (2R,4R)-6-chloro-4-hydroxy-N-[trans-4-{[cis-3-(trifluoromethoxy)cyclobutyl]carbamoyl}cyclohexyl]-3,4-dihydro-2H-1-benzopyran-2-carboxamide], the half-maximal effective concentration (EC50) was < 10 nM.

Consider `O=C(NC12CC(c3ncc(-c4ccc(Cl)cc4)o3)(C1)C2)[C@@H]1C[C@@H](O)c2cc(Cl)ccc2O1` [Compound 255, (2S,4R)-6-chloro-N-{3-[5-(4-chlorophenyl)-1,3-oxazol-2-yl]bicyclo[1.1.1]pentan-1-yl}-4-hydroxy-3,4-dihydro-2H-1-benzopyran-2-carboxamide], for which the half-maximal effective concentration (EC50) fell in the range of 10 to 50 nM.

Turning to `O=C(CO[C@H]1C[C@@H](OC(F)(F)F)C1)N[C@@H]1C[C@@H]2C[C@H]1C[C@H]2NC(=O)[C@H]1C[C@@H](O)c2cc(Cl)ccc2O1` (relative stereo) [Compound 211, (2R,4R)-6-chloro-4-hydroxy-N-[(1S*,2R*,4S*,5R*)-5-(2-{[cis-3-(trifluoromethoxy)cyclobutyl]oxy}acetamido)bicyclo[2.2.1]heptan-2-yl]-3,4-dihydro-2H-1-benzopyran-2-carboxamide], the half-maximal effective concentration (EC50) is < 10 nM.

`O=C(NC12CC(Oc3nc([C@H]4C[C@@H](OC(F)(F)F)C4)cs3)(C1)C2)[C@H]1C[C@@H](O)c2cc(Cl)ccc2O1` [Compound 301, (2R,4R)-6-chloro-4-hydroxy-N-[3-({4-[cis-3-(trifluoromethoxy)cyclobutyl]-1,3-thiazol-2-yl}oxy)bicyclo[1.1.1]pentan-1-yl]-3,4-dihydro-2H-1-benzopyran-2-carboxamide]: the EC50 lay in the range of 500 to 2000 nM.

With `O=C(N[C@@H]1CC[C@@H](c2nnc([C@H]3C[C@@H](OC(F)(F)F)C3)o2)OC1)[C@H]1C[C@@H](O)c2cc(Cl)ccc2O1` [Compound 169, (2R,4R)-6-chloro-4-hydroxy-N-[(3R,6S)-6-{5-[cis-3-(trifluoromethoxy)cyclobutyl]-1,3,4-oxadiazol-2-yl}oxan-3-yl]-3,4-dihydro-2H-1-benzopyran-2-carboxamide], the EC50 is < 10 nM.

For `CN(C(=O)COc1ccc(Cl)c(F)c1)[C@H]1CC[C@H](NC(=O)[C@H]2C[C@@H](O)c3cc(Cl)ccc3O2)CC1` [Compound 102, (2R,4R)-6-chloro-N-[(1r,4R)-4-{[(4-chloro-3-fluorophenoxy)acetyl](methyl)amino}cyclohexyl]-4-hydroxy-3,4-dihydro-2H-1-benzopyran-2-carboxamide], the concentration giving a half-maximal response (EC50) was 10 to 50 nM.

Consider `O=C(COc1ccc(Cl)c(F)c1)NC12CC(c3nnc([C@@H]4C[C@H](O)c5cc(Cl)ccc5O4)o3)(C1)C2` (relative stereo) [Compound 253, 2-(4-chloro-3-fluorophenoxy)-N-(3-{5-[(2S*,4S*)-6-chloro-4-hydroxy-3,4-dihydro-2H-1-benzopyran-2-yl]-1,3,4-oxadiazol-2-yl}bicyclo[1.1.1]pentan-1-yl)acetamide], for which the EC50 fell in the range of 10 to 50 nM.

In the case of `O=C(NC12CC(c3nc(COc4ccc(Cl)c(F)c4)no3)(C1)C2)[C@H]1C[C@@H](O)c2cc(Cl)ccc2O1` [Compound 156, (2R,4R)-6-chloro-N-(3-{3-[(4-chloro-3-fluorophenoxy)methyl]-1,2,4-oxadiazol-5-yl}bicyclo[1.1.1]pentan-1-yl)-4-hydroxy-3,4-dihydro-2H-1-benzopyran-2-carboxamide], the concentration for a half-maximal effect (EC50) was < 10 nM.

On to `O=C(NC12CC(c3cc([C@H]4C[C@H](OC(F)(F)F)C4)no3)(C1)C2)[C@H]1C[C@@H](O)c2cc(Cl)ccc2O1` [Compound 284, (2R,4R)-6-chloro-4-hydroxy-N-(3-{3-[trans-3-(trifluoromethoxy)cyclobutyl]-1,2-oxazol-5-yl}bicyclo[1.1.1]pentan-1-yl)-3,4-dihydro-2H-1-benzopyran-2-carboxamide], for which the EC50 lay in the range of 50 to 250 nM.

`O=C(NC12CC(c3cc([C@H]4C[C@@H](OC(F)(F)F)C4)no3)(C1)C2)[C@@H]1C[C@@H](O)c2cc(Cl)ccc2O1` [Compound 268, (2S,4R)-6-chloro-4-hydroxy-N-(3-{3-[cis-3-(trifluoromethoxy)cyclobutyl]-1,2-oxazol-5-yl}bicyclo[1.1.1]pentan-1-yl)-3,4-dihydro-2H-1-benzopyran-2-carboxamide]: the EC50 fell in the range of 50 to 250 nM.

For the compound `O=C(NC12CC(c3cc(-c4ccc(Cl)c(F)c4)no3)(C1)C2)[C@H]1C[C@@H](O)c2cc(Cl)ccc2O1` [Compound 248, (2R,4R)-6-chloro-N-{3-[3-(4-chloro-3-fluorophenyl)-1,2-oxazol-5-yl]bicyclo[1.1.1]pentan-1-yl}-4-hydroxy-3,4-dihydro-2H-1-benzopyran-2-carboxamide], the EC50 was in the range of 10 to 50 nM.

For the compound `O=C1CC(C(=O)NC23CCC(c4nnc([C@H]5C[C@@H](OC(F)(F)F)C5)o4)(CC2)OC3)Oc2ccc(Cl)cc21` (stereo partly drawn) [Compound 163], the concentration for a half-maximal effect (EC50) fell in the range of 10 to 50 nM.

Usually EC50 stands for the concentration that produces a half-maximal response.
